Laboratory results reported in patent publication US9828357B2, “Cyclic compounds” (Takeda Pharmaceutical Company Limited, priority 2015, dated 2017).

target: T1, TLR4 (Mus musculus, UniProt Q9QUK6); experiment: Inhibitory effect with respect to NO production (LPS/interferon γ-stimulated RAW264.7); type: cell-based, murine; settings: RAW264.7 cells, LPS 1.25 ng/mL and mouse interferon γ 0.2 ng/mL, nitrite ion in culture supernatant
T1 construct: endogenous in cells; host or cells: RAW264.7 (murine macrophage cell line)
T1 sequence (Q9QUK6 26-835): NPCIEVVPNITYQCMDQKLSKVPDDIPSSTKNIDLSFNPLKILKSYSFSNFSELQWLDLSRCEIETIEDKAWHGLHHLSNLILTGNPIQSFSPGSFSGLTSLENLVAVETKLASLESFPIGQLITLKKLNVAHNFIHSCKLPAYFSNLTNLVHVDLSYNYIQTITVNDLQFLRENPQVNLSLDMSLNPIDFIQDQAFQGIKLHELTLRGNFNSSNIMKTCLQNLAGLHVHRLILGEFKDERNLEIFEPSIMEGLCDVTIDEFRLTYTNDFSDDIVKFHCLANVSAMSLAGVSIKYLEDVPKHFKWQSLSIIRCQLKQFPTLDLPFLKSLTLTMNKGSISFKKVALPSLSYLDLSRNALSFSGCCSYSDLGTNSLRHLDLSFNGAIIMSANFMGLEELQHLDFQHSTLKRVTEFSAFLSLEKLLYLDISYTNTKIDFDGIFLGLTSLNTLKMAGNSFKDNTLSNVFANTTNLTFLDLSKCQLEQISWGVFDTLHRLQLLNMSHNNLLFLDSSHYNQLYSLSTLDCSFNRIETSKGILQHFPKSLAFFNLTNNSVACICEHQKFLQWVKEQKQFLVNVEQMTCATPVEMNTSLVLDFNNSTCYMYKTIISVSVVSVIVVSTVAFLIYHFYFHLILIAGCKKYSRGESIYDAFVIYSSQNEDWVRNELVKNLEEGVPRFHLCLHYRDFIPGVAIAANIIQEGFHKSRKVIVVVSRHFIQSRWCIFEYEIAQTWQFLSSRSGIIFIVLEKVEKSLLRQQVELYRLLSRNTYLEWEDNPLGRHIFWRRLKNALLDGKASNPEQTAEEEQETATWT
T1 sequence (Q9JHF9 19-160 partner): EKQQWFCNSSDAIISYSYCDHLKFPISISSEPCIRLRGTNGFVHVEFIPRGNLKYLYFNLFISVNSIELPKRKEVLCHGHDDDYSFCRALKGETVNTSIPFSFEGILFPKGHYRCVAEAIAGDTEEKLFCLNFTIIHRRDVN
Protocol: The inhibitory effect on TLR4 was determined using the inhibition rate due to the test compound with respect to NO production as a result of addition of lipopolysaccharide (LPS) using murine macrophage cell line RAW264.7. The cells were adjusted to 2×10^6 cells/mL using RPM1-1640 culture medium (phenol red free) supplemented with 10% inactivated bovine fetal serum, and were plated on 384 well plate so as to contain 6×10^4 cells/30 μL per well. Thereafter the cells were cultured at 37° C. overnight under 5% CO2/95% air. The test compound dissolved in DMSO was diluted 200 times using RPM1-1640 culture medium and adjusted so as to form a compound concentration of 500 nM. The prepared test compound 10 μL (final concentration 100 nM) was added to the cells, and LPS (Sigma) and mouse interferon γ (Wako Pure Chemicals) were added in amounts of 10 μL so as to form final concentrations of 1.25 ng/mL and 0.2 ng/mL respectively. The cells were further cultured overnight, and then the nitrite ion (stable NO metabolite) concentration in the culture supernatant was measured as an index of NO production. The nitrite ion concentration was assayed by adding 10 μL of 20 μg/mL 2,3-diamino naphthalene (DAN) dissolved in 0.2N HCl to 20 μL culture supernatant, incubating at room temperature for ten minutes, and then adding 10 μL of 0.5N NaOH, and measuring the fluorescent value at 460 nm (excitation wavelength 355 nm) using an EnVision plate reader (Perkin Elmer). The NO production inhibition rate (%) was calculated using the value without the addition of stimulating agent as control of 100% inhibition, and the value without the addition of the compound as control of 0% inhibition.

`CCOC(=O)C1=CCOCC1S(=O)(=O)C1CCc2cccc(Cl)c21` (single isomer, unassigned) [Compound 20] and `CCOC(=O)C1=CCCC[C@H]1S(=O)(=O)[C@H]1CCc2cccc(Cl)c21` [Compound 18, Ethyl (6R)-6-(((1S)-7-chloro-2,3-dihydro-1H-inden-1-yl)sulfonyl)cyclohex-1-ene-1-carboxylate] are the same in “NO production inhibitory effect at 100 nM (% inhibition)” value: 104 % inhibition for the first, 104 % inhibition for the second.

First: CCOC(=O)C1=CCCCC1S(=O)(=O)C1CCc2c(Cl)cccc21 (stereo not drawn) [Compound 1, Ethyl 6-((4-chloro-2,3-dihydro-1H-inden-1-yl)sulfonyl)cyclohex-1-ene-1-carboxylate]
Second: CCOC(=O)C1=CC2(CCC1S(=O)(=O)C1CCc3c(Cl)cccc31)O[C@H](CO)[C@@H](CO)O2 (stereo partly drawn) [Compound 2, Ethyl (2R,3R)-8-((4-chloro-2,3-dihydro-1H-inden-1-yl)sulfonyl)-2,3-bis(hydroxymethyl)-1,4-dioxaspiro[4.5]dec-6-ene-7-carboxylate]
The “NO production inhibitory effect at 100 nM (% inhibition)” value of the first is lower: 96 % inhibition for the first, 99 % inhibition for the second.

Going from `CCOC(=O)C1=CC2(CCC1S(=O)(=O)C1CCc3c(Cl)cccc31)O[C@@H](CO)[C@H](CO)O2` (stereo partly drawn) [Compound 3, Ethyl (2S,3S)-8-((4-chloro-2,3-dihydro-1H-inden-1-yl)sulfonyl)-2,3-bis(hydroxymethyl)-1,4-dioxaspiro[4.5]dec-6-ene-7-carboxylate] to `CCOC(=O)C1=CC2(CC[C@H]1S(=O)(=O)[C@H]1CCc3cccc(Cl)c31)O[C@@H](CO)[C@H](CO)O2` [Compound 7, Ethyl (2S,3S,8R)-8-(((1S)-7-chloro-2,3-dihydro-1H-inden-1-yl)sulfonyl)-2,3-bis(hydroxymethyl)-1,4-dioxaspiro[4.5]dec-6-ene-7-carboxylate], the “NO production inhibitory effect at 100 nM (% inhibition)” value falls from 110 % inhibition to 105 % inhibition.

Compared with `CC1(COC(=O)C2=CC3(CCC2S(=O)(=O)C2CCc4cccc(Cl)c42)O[C@@H](CO)[C@H](CO)O3)CC1` (stereo partly drawn) [Compound 8, (1-methylcyclopropyl)methyl (2S,3S)-8-((7-chloro-2,3-dihydro-1H-inden-1-yl)sulfonyl)-2,3-bis(hydroxymethyl)-1,4-dioxaspiro[4.5]dec-6-ene-7-carboxylate], `CCOC(=O)C1=CC2(CC[C@H]1S(=O)(=O)[C@H]1CCCc3cccc(Cl)c31)O[C@@H](CO)[C@H](CO)O2` [Compound 19, Ethyl (2S,3S,8R)-8-(((1S)-8-chloro-1,2,3,4-tetrahydronaphthalen-1-yl)sulfonyl)-2,3-bis(hydroxymethyl)-1,4-dioxaspiro[4.5]dec-6-ene-7-carboxylate] is higher in “NO production inhibitory effect at 100 nM (% inhibition)” value: 99 % inhibition for the first, 107 % inhibition for the second.

Going from `CCOC(=O)C1=CC2(CCC1S(=O)(=O)C1CCc3c(F)ccc(Cl)c31)O[C@@H](CO)[C@H](CO)O2` (stereo partly drawn) [Compound 9, Ethyl (2S, 3S)-8-((7-chloro-4-fluoro-2,3-dihydro-1H-inden-1-yl)sulfonyl)-2,3-bis(hydroxymethyl)-1,4-dioxaspiro[4.5]dec-6-ene-7-carboxylate] to `CCOC(=O)C1=CC2(CCC1S(=O)(=O)C1CCc3ccc(F)c(Cl)c31)O[C@@H](CO)[C@H](CO)O2` (stereo partly drawn) [Compound 10, Ethyl (2S, 3S)-8-((7-chloro-6-fluoro-2,3-dihydro-1H-inden-1-yl)sulfonyl)-2,3-bis(hydroxymethyl)-1,3-dioxaspiro[4.5]dec-6-ene-7-carboxylate], the “NO production inhibitory effect at 100 nM (% inhibition)” value falls from 110 % inhibition to 100 % inhibition.

Compared with `CCOC(=O)C1=CC2(CCC1S(=O)(=O)C1CCc3cc(F)cc(Br)c31)O[C@@H](CO)[C@H](CO)O2` (stereo partly drawn) [Compound 11, Ethyl (2S, 3S)-8-((7-bromo-5-fluoro-2,3-dihydro-1H-inden-1-yl)sulfonyl)-2,3-bis(hydroxymethyl)-1,4-dioxaspiro[4.5]dec-6-ene-7-carboxylate], `CCOC(=O)C1=CC2(CC[C@H]1S(=O)(=O)[C@H]1CCc3cc(F)cc(Cl)c31)O[C@@H](CO)[C@H](CO)O2` [Compound 15, Ethyl (2S,3S,8R)-8-(((1S)-7-chloro-5-fluoro-2,3-dihydro-1H-inden-1-yl)sulfonyl)-2,3-bis(hydroxymethyl)-1,4-dioxaspiro[4.5]dec-6-ene-7-carboxylate] is lower in “NO production inhibitory effect at 100 nM (% inhibition)” value: 110 % inhibition for the first, 106 % inhibition for the second.

`CCOC(=O)C1=CC2(CCC1S(=O)(=O)C1CCc3cccc(Br)c31)O[C@@H](CO)[C@H](CO)O2` (stereo partly drawn) [Compound 12, Ethyl (2S, 3S)-8-((7-bromo-2,3-dihydro-1H-inden-1-yl)sulfonyl)-2,3-bis(hydroxymethyl)-1,4-dioxaspiro[4.5]dec-6-ene-7-carboxylate] and `CCOC(=O)C1=CC2(CCC1S(=O)(=O)C1CCc3cccc(C)c31)O[C@@H](CO)[C@H](CO)O2` (stereo partly drawn) [Compound 13, Ethyl (2S, 3S)-2,3-bis(hydroxymethyl)-8-((7-methyl-2,3-dihydro-1H-inden-1-yl)sulfonyl)-1,4-dioxaspiro[4.5]dec-6-ene-7-carboxylate] are the same in “NO production inhibitory effect at 100 nM (% inhibition)” value: 100 % inhibition for the first, 100 % inhibition for the second.

same assay, conditions: RAW264.7 cells, LPS 1.25 ng/mL and mouse interferon γ 0.2 ng/mL, nitrite ion in culture supernatant, 0.1 µM

Compared with `CCOC(=O)C1=CC(O)CCC1S(=O)(=O)C1CCc2cccc(Cl)c21` (racemic) [Compound 4, Ethyl 6-((7-chloro-2,3-dihydro-1H-inden-1-yl)sulfonyl)-3-hydroxycyclohex-1-ene-1-carboxylate], `CCOC(=O)C1=CC2(CCC1S(=O)(=O)C1CCCc3cccc(Cl)c31)O[C@H](CO)[C@@H](CO)O2` (single isomer, unassigned) [Compound 16] is lower in “NO production inhibitory effect at 100 nM (% inhibition)” value: 110 % inhibition for the first, 108 % inhibition for the second.

Compared with `CCOC(=O)C1=CC(O)CCC1S(=O)(=O)C1CCc2cccc(Cl)c21` (racemic) [Compound 5, Ethyl 6-((7-chloro-2,3-dihydro-1H-inden-1-yl)sulfonyl)-3-hydroxycyclohex-1-ene-1-carboxylate], `CCOC(=O)C1=CC2(CCC1S(=O)(=O)C1CCCc3cccc(Cl)c31)O[C@H](CO)[C@@H](CO)O2` (single isomer, unassigned) [Compound 17] is lower in “NO production inhibitory effect at 100 nM (% inhibition)” value: 100 % inhibition for the first, 86 % inhibition for the second.
